Data on nine compounds can be found in PubChem BioAssay (NCI).

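Dose response: 5 concentrations. Exposure: 48 h. Format: 96-well plates. Endpoint: linear interpolation; highest concentration if not reached. Abbreviation: GI50, concentration required for 50% inhibition of growth. At the TGI there is no net growth.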

Some test systems named below: HOP-62 NSCLC; HOP-92 NSCLC; SF-295 CNS; SK-MEL-28 melanoma; HCT-15 colon; MCF7 breast; RXF 393 renal; HT29 colon; MDA-MB-231 breast; OVCAR-5 ovarian.
Holding throughout (test): inhibition of tumour cell growth, NCI panel, 48 h

Regarding `CSC(=S)N/N=C(\C)c1ccccn1`, the GI50 in the test on HOP-62 NSCLC was 0.366 µM; with HOP-92 NSCLC, 1.39 µM; in the test with SF-295 CNS, 0.255 µM; with SK-MEL-28 melanoma, 0.429 µM; in the test on HCT-15 colon, 0.16 µM; with MCF7 breast, less than 0.0207 µM. Also, the GI50 in the test on RXF 393 renal is 0.261 µM; in the test on HT29 colon, less than 0.0394 µM; in the test with MDA-MB-231 breast it was 0.113 µM; in the test on OVCAR-5 ovarian, 0.143 µM. Also, the TGI in the test on HOP-62 NSCLC worked out at 5.19 µM; in the test on HOP-92 NSCLC, 26.1 µM; in the test with SF-295 CNS it was 8.38 µM; in the test on SK-MEL-28 melanoma, 17.5 µM; in the test on HCT-15 colon, 24.5 µM; in the test with MCF7 breast, 11.2 µM. In addition, the TGI amounted to 3.1 µM in the test with RXF 393 renal, 18.1 µM in the test on HT29 colon, 8.98 µM with MDA-MB-231 breast and 22.2 µM in the test on OVCAR-5 ovarian.

For the compound `CCOC1NC(=O)Oc2ccccc21` (stereo not given), the TGI in the test with HOP-62 NSCLC, in the test on HOP-92 NSCLC, with SF-295 CNS, in the test with SK-MEL-28 melanoma, with HCT-15 colon and in the test with MCF7 breast was more than 100 µM in each case. In addition, the TGI in the test on RXF 393 renal, in the test with HT29 colon, with MDA-MB-231 breast and with OVCAR-5 ovarian was more than 100 µM in each case.

As to `Oc1ccc2ccccc2c1/C=N\Nc1ccccn1`, the GI50 with HOP-62 NSCLC is 0.416 µM; with HOP-92 NSCLC it was 0.403 µM; with SF-295 CNS, 0.64 µM; with SK-MEL-28 melanoma, 8.81 µM; in the test with HCT-15 colon it was 0.511 µM; in the test on MCF7 breast it was 0.895 µM. For the same compound, the GI50 in the test with RXF 393 renal was 1.55 µM; with HT29 colon, 39.1 µM; in the test with MDA-MB-231 breast, 0.463 µM; in the test with OVCAR-5 ovarian, 4.25 µM. The TGI with HOP-62 NSCLC is 17 µM; with HOP-92 NSCLC, more than 100 µM; with SF-295 CNS it was 2 µM; with SK-MEL-28 melanoma, more than 100 µM; in the test on HCT-15 colon, more than 100 µM; in the test on MCF7 breast, more than 34 µM. Further, the TGI in the test on RXF 393 renal was more than 57.4 µM; with HT29 colon it was more than 100 µM; in the test with MDA-MB-231 breast, more than 43 µM; in the test on OVCAR-5 ovarian, more than 100 µM.

For the compound `COC(=O)c1oc2c(C(=O)/C=C/c3ccc(OC)cc3)c(OCCCN3CCCCC3)ccc2c1C`, the GI50 is 1.67 µM in the test with HOP-62 NSCLC; 0.808 µM with HOP-92 NSCLC; 1.8 µM in the test with SF-295 CNS; 0.85 µM in the test with SK-MEL-28 melanoma; 0.901 µM in the test on HCT-15 colon; 1.15 µM with MCF7 breast. In addition, the GI50 was 0.066 µM in the test with RXF 393 renal, 1.49 µM with HT29 colon, 1.69 µM in the test on MDA-MB-231 breast and 2.31 µM in the test with OVCAR-5 ovarian. The TGI with HOP-62 NSCLC is 3.48 µM; with HOP-92 NSCLC, 2.59 µM; in the test on SF-295 CNS, 3.93 µM; in the test on SK-MEL-28 melanoma, 2.33 µM; in the test on HCT-15 colon, 2.35 µM; in the test with MCF7 breast it was 2.5 µM. Further, the TGI with RXF 393 renal was determined as 0.487 µM; in the test on HT29 colon, 3.22 µM; with MDA-MB-231 breast, 3.78 µM; in the test with OVCAR-5 ovarian, 6.17 µM.

Take `Cc1ccc(/C=C(\C#N)n2nnc3cc(F)c(F)cc32)cc1`: the GI50 is 1.52 µM in the test with HOP-62 NSCLC; 2.37 µM in the test with HOP-92 NSCLC; 4.02 µM with SF-295 CNS; 6.79 µM with SK-MEL-28 melanoma; 0.651 µM with HCT-15 colon; 2.45 µM in the test with MCF7 breast. Moreover, the GI50 in the test on RXF 393 renal is 3.28 µM; in the test with HT29 colon, 0.421 µM; in the test with MDA-MB-231 breast, 3.33 µM; with OVCAR-5 ovarian, 3.39 µM. The TGI in the test on HOP-62 NSCLC is 3.64 µM; with HOP-92 NSCLC, 8.32 µM; in the test on SF-295 CNS it was 34.4 µM; in the test on SK-MEL-28 melanoma, more than 100 µM; in the test with HCT-15 colon, 15.3 µM; in the test with MCF7 breast, more than 100 µM. Also, the TGI in the test with RXF 393 renal was 13.5 µM; in the test on HT29 colon, 1.53 µM; with MDA-MB-231 breast, 12.8 µM; with OVCAR-5 ovarian, more than 100 µM.

With `CC(C)(C)c1ccc(-c2nnc(SCc3ccc(Cl)cc3)n2-c2cccc(C(F)(F)F)c2)cc1`, the TGI in the test on HOP-62 NSCLC, in the test on HOP-92 NSCLC, with SF-295 CNS, with SK-MEL-28 melanoma, with HCT-15 colon and with MCF7 breast was more than 100 µM throughout. Moreover, the TGI is more than 100 µM in the test on RXF 393 renal, more than 100 µM with HT29 colon, more than 100 µM in the test with MDA-MB-231 breast and more than 96.1 µM in the test on OVCAR-5 ovarian.

As to `O=C1/C(=C/c2ccc(O)cc2)CCC1CNc1ccc(Cl)cc1` (stereo not given), the TGI with HOP-62 NSCLC is 20.7 µM; with HOP-92 NSCLC, 28.4 µM; with SF-295 CNS it was 16.7 µM; in the test on SK-MEL-28 melanoma, 24.2 µM; in the test on HCT-15 colon, 2.83 µM; in the test on MCF7 breast, 6.82 µM. Further, the TGI in the test with RXF 393 renal was found to be 15.6 µM; in the test on HT29 colon, 14.9 µM; with MDA-MB-231 breast, 9.56 µM; in the test on OVCAR-5 ovarian, 23.5 µM.

Regarding `CCOc1ccc2c(c1)/C(=C\C=C\C1CC(C)C3CC(OCC)CCC3N1CC)CC(C)N2CC` (stereo not given), the GI50 with HOP-62 NSCLC was 0.755 µM; in the test on HOP-92 NSCLC, 1.21 µM; in the test on SF-295 CNS it was 0.418 µM; with SK-MEL-28 melanoma, 1.36 µM; in the test on HCT-15 colon it was 1.16 µM; in the test on MCF7 breast it was 0.627 µM. For the same compound, the GI50 in the test with RXF 393 renal is 1.17 µM; in the test with HT29 colon, 0.521 µM; in the test on MDA-MB-231 breast, 1.22 µM; in the test with OVCAR-5 ovarian it was 1.23 µM. The TGI came to 2.25 µM in the test with HOP-62 NSCLC; 2.58 µM with HOP-92 NSCLC; 1.68 µM in the test on SF-295 CNS; 2.86 µM in the test on SK-MEL-28 melanoma; 2.77 µM in the test on HCT-15 colon; 2.43 µM with MCF7 breast. The TGI in the test with RXF 393 renal was found to be 2.59 µM; in the test with HT29 colon it was 1.69 µM; with MDA-MB-231 breast, 2.92 µM; in the test on OVCAR-5 ovarian it was 2.64 µM.

Turning to `NCCOc1ccccn1`, the TGI in the test with HOP-62 NSCLC, with HOP-92 NSCLC, in the test on SF-295 CNS, in the test on SK-MEL-28 melanoma, in the test on HCT-15 colon and in the test with MCF7 breast was more than 100 µM each time. Also, the TGI with RXF 393 renal, in the test with HT29 colon, in the test on MDA-MB-231 breast and in the test on OVCAR-5 ovarian was more than 100 µM each time.
